Data set [1] deals with patient with Female Sexual Arousal Disorder. As to the kind of experiment: Treatment of Female Sexual Arousal Disorder in a patient (Examples B, J). Format: in vivo, human. The conditions noted are these: 3 mg/dose 0.5-1 hr before sexual activity; examined after one month; patient report. From the text:
A 64 kg, patient is complaining of vaginal dryness and mild discomfort during sexual intercourse. The patient recently began a relationship with a person. Their partner complained of their vaginal dryness and poor vaginal expansion during sexual intercourse. Their partner has made several comments about this during the previous two months and the patient is concerned that their partner is dissatisfied with their lack of sexual responsiveness and may end the relationship. The patient reports that they desire to continue the relationship. The patient has had several previous sexual relationships. They report that vaginal dryness and some discomfort with vaginal intercourse has occurred during their past sexual relationships. […] They find their current partner attractive and sexual desirable. […] During these episodes they usually have an orgasm. Lubrication is not a problem when they masturbate. […] They currently take no prescription drugs other than low dose birth control pills. […] The patient is diagnosed as having Female Sexual Arousal Disorder that is situational due to psychological factors (Diagnostic and Statistical Manual of Mental Disorders, Fourth Edition, 1994). (5R)-(methylamino)-5,6-dihydro-4H-imidazo[4,5,1-ij]quinolin-2(1H)-one (Z)-2-butenedioate (1:1) is prescribed at 3 mg/dose to be taken 0.5-1 hr before the patient intends to engage in sexual activity. The patient is instructed that they may use the drug on a daily basis, if this is the intended frequency of sexual activity. The patient is examined after one month. They report that they use the drug prior to intercourse. […] The patient is instructed to continue using the drug.

In data set [2] the test system is patient with Female Orgasmic Disorder. As to the kind of experiment: Treatment of Female Orgasmic Disorder (Examples D, L). The conditions noted are these: 1 mg/dose about 0.5 hr before sexual activity; examined after two months; patient report. Format: in vivo, human. From the text: A 50 kg, patient who married three months before presenting for treatment. […] They were not sexually active prior to marriage. They report that their spouse had multiple premarital partners and that they report all their past partners had orgasms. The patient is upset by their inability to have orgasms and feels they are an poor spouse. On questioning they report that they are “too fat” although their weight is appropriate for their height. […] They currently take no prescription drugs other than low dose birth control pills. […] The patient is diagnosed as having Female Orgasmic Disorder that is situational due to psychological factors (Diagnostic and Statistical Manual of Mental Disorders, Fourth Edition, 1994). (5R)-(methylamino)-5,6-dihydro-4H-imidazo[4,5,1-ij]quinolin-2(1H)-one (Z)-2-butenedioate (1:1) is prescribed at 1 mg/dose to be taken about 0.5 hr before the patient intends to engage in sexual activity. The patient is instructed that they may use the drug on a daily basis, if this is the intended frequency of sexual activity. The patient is examined after two months. They report that they use the drug prior to intercourse. […] It is recommended that the patient continue to use the drug for an additional six months, then stop taking the drug for a period of two weeks to determine whether they might now be able to have orgasms in the absence of drug therapy.

Data set [3] deals with male and female Giant Pandas. As to the kind of experiment: Mating of animals of commercial value (Examples F, N). It counts as in vivo, Giant Panda. Conditions: 0.05 mg of free base equivalents per kilogram of body weight in diet, one occasion; for induction of mating (treatment effect): one hour after ingesting. From the text:
An adult male Giant Panda on temporary loan from a foreign zoo is desired to have breed to an adult female Giant Panda which is normally resident at the zoo. Because of the commercial value of a potential off-spring it is desirable that the animals mate during the time the adult male is on loan. […] As an alternative to anesthetizing the animals for a facilitated transfer of semen between the animals, the male and female Giant Pandas have (5R)-(methylamino)-5,6-dihydro-4H-imidazo[4,5,1-ij]quinolin-2(1H)-one (Z)-2-butenedioate (II) added to their diet on one occasion. The concentration of drug in the diet is calculated to deliver 0.05 mg of free base equivalents of (5R)-(methylamino)-5,6-dihydro-4H-imidazo[4,5,1-ij]quinolin-2(1H)-one (Z)-2-butenedioate (1:1) per kilogram of body weight.

In data set [4] the test system is patient with idiopathic epilepsy and hypogonadism, secondary to chronic carbamazepine treatment. Description: Treatment of reduced sexual function in a person with idiopathic epilepsy (Examples G, O). Format: in vivo, human. The conditions noted are these: 3 mg/dose 0.5 hr before sexual activity, 2-3 times per week; carbamazepine 500 mg/day; examined after one month. On the procedure:
A 75 kg patient has idiopathic epilepsy. They first presented with primary generalized seizures and was diagnosed with idiopathic epilepsy. They have been treated with carbamazepine. Currently they receive 500 mg/day of the drug. They have had two tonic-clonic seizures during the preceding year. The patient complains of diminished sexual interest in their spouse of 8 years. On those occasions when they attempt sexual intercourse, they are able to maintain an erection sufficient for intercourse one-third of the time. […] They report that they rarely have sexual fantasies and rarely masturbates. […] They currently take no prescription drugs other than carbamazepine. […] Plasma testosterone and sex hormone binding globulin assays are performed. The plasma testosterone level is 25 nM, which is considered normal. The plasma sex hormone binding globulin level is 55 nM, which is considered elevated compared to the normal range. The patient is diagnosed with hypogonadism, secondary to chronic carbamazepine treatment (Epilepsia 36: 366-370, 1995). (5R)-(methylamino)-5,6-dihydro-4H-imidazo[4,5,1-ij]quinolin-2(1H)-one (Z)-2-butenedioate (1:1) is prescribed at 3 mg/dose to be taken 0.5 hr before the patient intends to engage in sexual activity. The patient is instructed that they may use the drug on a daily basis, if this is the intended frequency of sexual activity. The patient is examined after one month. They report that they take the drug 2-3 times per week. […] The patient is instructed to continue with the treatment.

Molecules are shown by their SMILES.

Usually melting point stands for the temperature, or range, at which the solid turns liquid.

For `CN[C@@H]1Cc2cccc3[nH]c(=O)n(c23)C1.O=C(O)/C=C\C(=O)O` [(5R)-(methylamino)-5,6-dihydro-4H-imidazo[4,5,1-ij]quinolin-2(1H)-one (Z)-2-butenedioate (1:1)], in data set [1], the “pain during initiation of vaginal penetration” value is “no longer has pain”, the “treatment effect (sexual relationship)” value was “enjoys an improved sexual relationship with their partner” and the vaginal dryness entry is “no longer a problem”. For the same compound, in data set [2], the “orgasm during sexual intercourse” value is recorded as “has an orgasm during sexual intercourse on most occasions” and the “treatment effect (sexual relationship)” value is “enjoys an improved sexual relationship with their partner”. Besides, in data set [3], the “pregnancy and birth from the mating” value is “A pregnancy and subsequent birth of an off-spring results”; the “induction of mating (treatment effect)” value is “the animals engage in sexual intercourse”. In data set [4], the “sexual interest and initiation of sexual activity” value was “feels more interest in sex and usually initiates sexual activity with their spouse”; the “treatment effect (sexual relationship)” value was “enjoys a normal sexual relationship”.
Compound `CN[C@@H]1Cc2cccc3[nH]c(=S)n(c23)C1` [(5R)-5-(Methylamino)-5,6-dihydro-4H-imidazo[4,5,1-ij]quinoline-2(1H)-thione] had a melting point of 210 to 213 °C. The “treatment effect (sexual relationship)” value in data set [1] is given as “same positive treatment effect”. Moreover, in data set [2], the “treatment effect (sexual relationship)” value is reported as “same positive treatment effect”. Further, the “induction of mating (treatment effect)” value in data set [3] is “same positive treatment effect”. Further, the “treatment effect (sexual relationship)” value in data set [4] is reported as “same positive treatment effect”.

The record behind these values is US6809112B2, “Method of treating sexual disturbances” (priority 1999, dated 2004).
